Measured values: patent US20240148962A1, “INTRAVENOUS DELIVERY OF LARGE VOLUMES OF GAS WITH HIGHLY PRESSURIZED SUPERSATURATED SOLUTION” (Regents of the University of Minnesota, priority 2021, published 2024)

Columns and labels:
[1] = 1 atm, room temperature; cited from earlier work
[2] = Oxygen content dissolved in saline under different pressure and temperature, with and without nanobubbles; type: physicochemical; conditions: FIG. 4A; 5° C. and 5 atm
Description: Nanobubbles (triangles) are compared to control and macrobubbles (dots).

- oxygen content in saline without nanobubbles [2]: 200 ml of oxygen per L of saline
SMILES: O=O [oxygen]
- content of oxygen, previously published evidence [1]: 43 ml/liter
